Literature values as cited in patent publication US20200330379A1, “NON-ORAL CANNABINOID FORMULATION AND METHOD OF TREATMENT” (Navinta NV, Inc., priority 2019, published 2020).

Settings: limited by first-pass metabolism

For `CCCCCc1cc(O)c2c(c1)OC(C)(C)[C@@H]1CCC(C)=C[C@@H]21` [THC, (6aR,10aR)-6,6,9-trimethyl-3-pentyl-6a,7,8,10a-tetrahydro-6H-benzo[c]-chromen-1-ol], the Oral bioavailability is listed as 10% and 20.
